Patent US20060009478A1, “Methods for the treatment of back pain” (priority 2003, published 2006)

System: patients with moderate to severe chronic low back pain
Test: Pain intensity (daily diary, 11-point numerical scale), low back pain study with titration and 12-week fixed-dose period
Type: in vivo, human
Settings: for Pain intensity, change from baseline, MEAN (SD) / Pain intensity, percent change from baseline, MEAN (SD) / Pain intensity, actual value, MEAN (SD): LOCF imputation, average of last three days of dosing week; for Pain intensity, change from baseline, MEAN (SD) / Pain intensity, percent change from baseline, MEAN (SD) / Pain intensity, change from baseline, MAXIMUM / Pain intensity, change from baseline, MEDIAN / Pain intensity, change from baseline, MINIMUM / Pain intensity, percent change from baseline, MAXIMUM / Pain intensity, percent change from baseline, MEDIAN / Pain intensity, percent change from baseline, MINIMUM / Pain intensity, actual value, MEAN (SD) / Pain intensity, actual value, MAXIMUM / Pain intensity, actual value, MEDIAN / Pain intensity, actual value, MINIMUM: ITT population
Protocol: A multicenter, randomized, double-blind, active- and placebo-controlled study was designed and conducted.
In addition, adverse events and opioid-related adverse events were to be recorded in the daily diary.
For the pain intensity (PI) scale assessment, the patient was prompted with the question “How would you rate your overall pain intensity at this time?” and the PI score was recorded in the clinic at the Screening and Baseline Visits. Pain intensity was also assessed by prompting the patient with the questions “How would you rate your overall pain intensity during the past 24 hours?” and a daily PI diary score was recorded at bedtime. For both Pain Intensity prompts, the response was scored on an 11-point numerical scale (0=no pain and 10=severe pain).
The baseline average daily pain intensity score for each patient was calculated as the average of the daily bedtime pain intensity scores recorded during the 3 days immediately prior to baseline/start of titration period visit. The post-baseline average daily pain intensity scores were calculated as the average of the daily bedtime pain intensity scores recorded during the last 3 days of dosing prior to each visit. Missing data was imputed using the last-observation-carried-forward (LOCF) approach for efficacy variables in the fixed-dose period. If the first visit in the fixed-dose period was missing, the last value in the titration period was imputed forward. Unless indicated, all testing of statistical significance was two-sided, and a difference resulting in a p-value of equal to or less than 0.05 was considered statistically significant.
A primary efficacy endpoint was the percent change from baseline to the end of the fixed-dose period (Week 12) in average daily pain intensity. The percent change from baseline was calculated as [PI(baseline)−PI(fixed-dose)]/PI(baseline)*100. Data was summarized descriptively by treatment group. An analysis of covariance (ANCOVA) model including treatment and center as effects and baseline pain intensity as the covariate was used for global and pairwise inferences. Separate models were used to evaluate both the treatment by center and treatment by baseline pain intensity interaction terms.
A primary comparison of interest was oxycodone and naltrexone (e.g., BID or QID) versus oxycodone (e.g., QID). Secondary analyses included actual and percent change from baseline values of daily pain index, SF-12, and Oswestry disability index summarized descriptively by treatment group for both the titration and fixed-dose periods. Treatments were compared globally and in pairwise fashion at each visit in the fixed-dose period using an ANCOVA model that included treatment and center as effects and baseline pain intensity as the covariate. Separate models were used to evaluate both the treatment by center and treatment by baseline pain intensity interaction terms.

[1] = baseline to fixed dose week 1, LOCF
[2] = baseline to fixed dose week 2, LOCF
[3] = baseline to fixed dose week 3, LOCF
[4] = baseline to fixed dose week 4, LOCF
[5] = baseline to fixed dose week 5, LOCF
[6] = baseline to fixed dose week 6, LOCF

## COc1ccc2c3c1O[C@H]1C(=O)CC[C@@]4(O)[C@@H](C2)N(C)CC[C@]314 [OXY QID, oxycodone]
Baseline to fixed dose week 1
  Pain intensity, change from baseline, MEAN (SD): −3.6 (2.60)
  Pain intensity, percent change from baseline, MEAN (SD): −47.5 (33.12) percent
[1]
  Pain intensity, change from baseline, MAXIMUM: 3.0
  Pain intensity, change from baseline, MEDIAN: −3.7
  Pain intensity, change from baseline, MINIMUM: −9.7
  Pain intensity, percent change from baseline, MAXIMUM: 42.9%
  Pain intensity, percent change from baseline, MEDIAN: −52.4%
  Pain intensity, percent change from baseline, MINIMUM: −100.0%
Baseline to fixed dose week 2
  Pain intensity, change from baseline, MEAN (SD): −3.6 (2.59)
  Pain intensity, percent change from baseline, MEAN (SD): −47.1 (32.56) percent
[2]
  Pain intensity, change from baseline, MAXIMUM: 3.0
  Pain intensity, change from baseline, MEDIAN: −3.7
  Pain intensity, change from baseline, MINIMUM: −9.7
  Pain intensity, percent change from baseline, MAXIMUM: 42.9%
  Pain intensity, percent change from baseline, MEDIAN: −50.0%
  Pain intensity, percent change from baseline, MINIMUM: −100.0%
Baseline to fixed dose week 3
  Pain intensity, change from baseline, MEAN (SD): −3.7 (2.64)
  Pain intensity, percent change from baseline, MEAN (SD): −47.9 (33.29) percent
[3]
  Pain intensity, change from baseline, MAXIMUM: 3.0
  Pain intensity, change from baseline, MEDIAN: −4.0
  Pain intensity, change from baseline, MINIMUM: −9.7
  Pain intensity, percent change from baseline, MAXIMUM: 42.9%
  Pain intensity, percent change from baseline, MEDIAN: −54.2%
  Pain intensity, percent change from baseline, MINIMUM: −100.0%
Baseline to fixed dose week 4
  Pain intensity, change from baseline, MEAN (SD): −3.6 (2.68)
  Pain intensity, percent change from baseline, MEAN (SD): −47.4 (33.84) percent
[4]
  Pain intensity, change from baseline, MAXIMUM: 3.0
  Pain intensity, change from baseline, MEDIAN: −4.0
  Pain intensity, change from baseline, MINIMUM: −9.7
  Pain intensity, percent change from baseline, MAXIMUM: 42.9%
  Pain intensity, percent change from baseline, MEDIAN: −53.3%
  Pain intensity, percent change from baseline, MINIMUM: −100.0%
Baseline to fixed dose week 5
  Pain intensity, change from baseline, MEAN (SD): −3.6 (2.72)
  Pain intensity, percent change from baseline, MEAN (SD): −47.4 (34.44) percent
[5]
  Pain intensity, change from baseline, MAXIMUM: 3.0
  Pain intensity, change from baseline, MEDIAN: −4.0
  Pain intensity, change from baseline, MINIMUM: −9.7
  Pain intensity, percent change from baseline, MAXIMUM: 42.9%
  Pain intensity, percent change from baseline, MEDIAN: −52.4%
  Pain intensity, percent change from baseline, MINIMUM: −100.0%
Baseline to fixed dose week 6
  Pain intensity, change from baseline, MEAN (SD): −3.6 (2.70)
[6]
  Pain intensity, change from baseline, MAXIMUM: 3.0
  Pain intensity, change from baseline, MEDIAN: −4.0
  Pain intensity, change from baseline, MINIMUM: −9.7
Fixed dose week 1
  Pain intensity, actual value, MEAN (SD): 3.9 (2.53)
Fixed dose week 1, LOCF
  Pain intensity, actual value, MAXIMUM: 10.0
  Pain intensity, actual value, MEDIAN: 3.7
  Pain intensity, actual value, MINIMUM: 0.0
Fixed dose week 2
  Pain intensity, actual value, MEAN (SD): 3.9 (2.47)
Fixed dose week 2, LOCF
  Pain intensity, actual value, MAXIMUM: 10.0
  Pain intensity, actual value, MEDIAN: 3.7
  Pain intensity, actual value, MINIMUM: 0.0
Fixed dose week 3
  Pain intensity, actual value, MEAN (SD): 3.9 (2.52)
Fixed dose week 3, LOCF
  Pain intensity, actual value, MAXIMUM: 10.0
  Pain intensity, actual value, MEDIAN: 3.3
  Pain intensity, actual value, MINIMUM: 0.0
Fixed dose week 4
  Pain intensity, actual value, MEAN (SD): 3.9 (2.55)
Fixed dose week 4, LOCF
  Pain intensity, actual value, MAXIMUM: 10.0
  Pain intensity, actual value, MEDIAN: 3.3
  Pain intensity, actual value, MINIMUM: 0.0
Fixed dose week 5
  Pain intensity, actual value, MEAN (SD): 3.9 (2.59)
Fixed dose week 5, LOCF
  Pain intensity, actual value, MAXIMUM: 10.0
  Pain intensity, actual value, MEDIAN: 3.3
  Pain intensity, actual value, MINIMUM: 0.0
Fixed dose week 6
  Pain intensity, actual value, MEAN (SD): 3.9 (2.58)
Fixed dose week 6, LOCF, ITT
  Pain intensity percent change from baseline to fixed dose week 6, maximum: 42.9%
  Pain intensity percent change from baseline to fixed dose week 6, mean (SD): −47.5 (34.20) %
  Pain intensity percent change from baseline to fixed dose week 6, median: −51.9%
  Pain intensity percent change from baseline to fixed dose week 6, minimum: −100.0%
Fixed dose week 6, LOCF
  Pain intensity, actual value, MAXIMUM: 10.0
  Pain intensity, actual value, MEDIAN: 3.3
  Pain intensity, actual value, MINIMUM: 0.0
Fixed dose week 7, LOCF, ITT
  Pain intensity actual value at fixed dose week 7, maximum: 10.0
  Pain intensity actual value at fixed dose week 7, mean (SD): 4.0 (2.54)
  Pain intensity actual value at fixed dose week 7, median: 3.3
  Pain intensity actual value at fixed dose week 7, minimum: 0.0
  Pain intensity change from baseline to fixed dose week 7, maximum: 3.0
  Pain intensity change from baseline to fixed dose week 7, mean (SD): −3.6 (2.69)
  Pain intensity change from baseline to fixed dose week 7, median: −4.0
  Pain intensity change from baseline to fixed dose week 7, minimum: −9.7
  Pain intensity percent change from baseline to fixed dose week 7, maximum: 42.9%
  Pain intensity percent change from baseline to fixed dose week 7, mean (SD): −46.8 (34.05) %
  Pain intensity percent change from baseline to fixed dose week 7, median: −52.9%
  Pain intensity percent change from baseline to fixed dose week 7, minimum: −100.0%
Fixed dose week 8, LOCF, ITT
  Pain intensity actual value at fixed dose week 8, maximum: 10.0
  Pain intensity actual value at fixed dose week 8, mean (SD): 4.0 (2.57)
  Pain intensity actual value at fixed dose week 8, median: 3.3
  Pain intensity actual value at fixed dose week 8, minimum: 0.0
  Pain intensity change from baseline to fixed dose week 8, maximum: 3.0
  Pain intensity change from baseline to fixed dose week 8, mean (SD): −3.6 (2.67)
  Pain intensity change from baseline to fixed dose week 8, median: −3.7
  Pain intensity change from baseline to fixed dose week 8, minimum: −9.7
  Pain intensity percent change from baseline to fixed dose week 8, maximum: 42.9%
  Pain intensity percent change from baseline to fixed dose week 8, mean (SD): −46.5 (34.05) %
  Pain intensity percent change from baseline to fixed dose week 8, median: −52.4%
  Pain intensity percent change from baseline to fixed dose week 8, minimum: −100.0%
Fixed dose week 9, LOCF, ITT
  Pain intensity actual value at fixed dose week 9, maximum: 10.0
  Pain intensity actual value at fixed dose week 9, mean (SD): 3.9 (2.57)
  Pain intensity actual value at fixed dose week 9, median: 3.3
  Pain intensity actual value at fixed dose week 9, minimum: 0.0
  Pain intensity change from baseline to fixed dose week 9, maximum: 3.0
  Pain intensity change from baseline to fixed dose week 9, mean (SD): −3.6 (2.70)
  Pain intensity change from baseline to fixed dose week 9, median: −4.0
  Pain intensity change from baseline to fixed dose week 9, minimum: −9.7
  Pain intensity percent change from baseline to fixed dose week 9, maximum: 42.9%
  Pain intensity percent change from baseline to fixed dose week 9, mean (SD): −47.4 (34.17) %
  Pain intensity percent change from baseline to fixed dose week 9, median: −53.3%
  Pain intensity percent change from baseline to fixed dose week 9, minimum: −100.0%
Fixed dose week 10, LOCF, ITT
  Pain intensity actual value at fixed dose week 10, maximum: 10.0
  Pain intensity actual value at fixed dose week 10, mean (SD): 4.0 (2.54)
  Pain intensity actual value at fixed dose week 10, median: 3.7
  Pain intensity actual value at fixed dose week 10, minimum: 0.0
  Pain intensity change from baseline to fixed dose week 10, maximum: 3.0
  Pain intensity change from baseline to fixed dose week 10, mean (SD): −3.6 (2.66)
  Pain intensity change from baseline to fixed dose week 10, median: −3.7
  Pain intensity change from baseline to fixed dose week 10, minimum: −9.7
  Pain intensity percent change from baseline to fixed dose week 10, maximum: 42.9%
  Pain intensity percent change from baseline to fixed dose week 10, mean (SD): −46.8 (33.72) %
  Pain intensity percent change from baseline to fixed dose week 10, median: −52.0%
  Pain intensity percent change from baseline to fixed dose week 10, minimum: −100.0%
Fixed dose week 11, LOCF, ITT
  Pain intensity actual value at fixed dose week 11, maximum: 10.0
  Pain intensity actual value at fixed dose week 11, mean (SD): 3.9 (2.57)
  Pain intensity actual value at fixed dose week 11, median: 3.3
  Pain intensity actual value at fixed dose week 11, minimum: 0.0
  Pain intensity change from baseline to fixed dose week 11, maximum: 3.0
  Pain intensity change from baseline to fixed dose week 11, mean (SD): −3.7 (2.70)
  Pain intensity change from baseline to fixed dose week 11, median: −4.0
  Pain intensity change from baseline to fixed dose week 11, minimum: −9.7
  Pain intensity percent change from baseline to fixed dose week 11, maximum: 42.9%
  Pain intensity percent change from baseline to fixed dose week 11, mean (SD): −48.2 (34.19) %
  Pain intensity percent change from baseline to fixed dose week 11, median: −55.6%
  Pain intensity percent change from baseline to fixed dose week 11, minimum: −100.0%
Fixed dose week 12, LOCF, ITT
  Pain intensity actual value at fixed dose week 12, maximum: 10.0
  Pain intensity actual value at fixed dose week 12, mean (SD): 4.0 (2.53)
  Pain intensity actual value at fixed dose week 12, median: 3.7
  Pain intensity actual value at fixed dose week 12, minimum: 0.0
  Pain intensity change from baseline to fixed dose week 12, maximum: 3.0
  Pain intensity change from baseline to fixed dose week 12, mean (SD): −3.5 (2.65)
  Pain intensity change from baseline to fixed dose week 12, median: −3.7
  Pain intensity change from baseline to fixed dose week 12, minimum: −9.7
  Pain intensity percent change from baseline to fixed dose week 12, maximum: 42.9%
  Pain intensity percent change from baseline to fixed dose week 12, mean (SD): −46.2 (33.60) %
  Pain intensity percent change from baseline to fixed dose week 12, median: −52.0%
  Pain intensity percent change from baseline to fixed dose week 12, minimum: −100.0%
